{"source": "patent US20240025891A1", "about": "(Celgene Corporation, priority 2020, published 2024)", "data": [{"tested_on": "Dirofilaria immitis microfilariae and 4th stage larvae (L4)", "assay": "Heartworm screen Dirofilaria immitis (DiMF and DiL4 assays)", "assay_type": "cell-based", "settings": "read-out: D. immitis Act class", "protocol": "Heartworm Screen Dirofilaria immitis (D. immitis)\n(§1) Dirofilaria immitis, Microfilaria (DiMF) Assay. Compounds were dissolved and serially diluted in DMSO. Aliquots were spotted to the empty wells of assay plates. Media and microfilariae of Dirofilaria immitis were added to each well to dilute the test compounds to the desired concentrations. Assay plates were incubated for approximately 72 hours, and the larvae in each well were observed microscopically for drug effect. Microfilariae in each well were assessed subjectively for survival or paralysis, and results were reported as Minimum Effective Dose (MED).\nas §1, with “L4 stage (DiL4)” for “Microfilaria (DiMF)”, “4th stage larvae (L4)” for “microfilariae”, “Larvae” for “Microfilariae”\nActive and selective (DiL4 vs. DiMF potency) example compounds were subsequently evaluated in heartworm positive dog studies to correlate the in vitro selectivity profile with in vivo effects on circulating microfilariae.", "units": {"IC50": "nM"}, "values": [{"smiles": "c1ccc(-c2csc(Nc3cc4[nH]ccc4cn3)n2)nc1", "note": "[Example 136, 4-(pyridin-2-yl)-N-(1H-pyrrolo [3,2-c]pyridin-6-yl)thiazol-2-amine]", "IC50": "500 to 5000"}, {"smiles": "c1ccc(-c2csc(Nc3ccc(C4CCCC4)cn3)n2)nc1", "note": "[Example 138, N-(5-cyclopentyl-pyridin-2-yl)-4-(pyridin-2-yl)thiazol-2-amine]", "IC50": "< 200"}, {"smiles": "CCCCc1ccnc(Nc2nc(-c3ccccn3)cs2)c1", "note": "[Example 167, N-(4-butylpyridin-2-yl)-4-(pyridin-2-yl)thiazol-2-amine]", "IC50": "< 200"}, {"smiles": "c1ccc(-c2csc(Nc3cc(C4CCC4)ccn3)n2)nc1", "note": "[Example 168, N-(4-cyclobutyl-pyridin-2-yl)-4-(pyridin-2-yl)thiazol-2-amine]", "IC50": "< 200"}, {"smiles": "c1ccc(-c2csc(Nc3cc(-c4cccnn4)ccn3)n2)nc1", "note": "[Example 169, N-(4-(pyridazin-3-yl)pyridin-2-yl)-4-(pyridin-2-yl)thiazol-2-amine]", "IC50": "500 to 5000"}, {"smiles": "O=C(NC1CC1)c1ccnc(Nc2nc(-c3ccccn3)cs2)c1", "note": "[Example 170, N-cyclopropyl-2-(4-(pyridin-2-yl)thiazol-2-ylamino) isonicotinamide]", "IC50": "500 to 5000"}, {"smiles": "CNC(=O)c1ccc(-c2ccnc(Nc3nc(-c4ccccn4)cs3)c2)cc1", "note": "[Example 171, N-methyl-4-(2-(4-(pyridin-2-yl)thiazol-2-ylamino)pyridin-4-yl)benzamide]", "IC50": "500 to 5000"}, {"smiles": "CCCc1ccnc(Nc2nc(-c3ccccn3)cs2)c1", "note": "[Example 172, N-(4-propylpyridin-2-yl)-4-(pyridin-2-yl)thiazol-2-amine]", "IC50": "< 200"}, {"smiles": "c1ccc(-c2csc(Nc3cc(-c4cnccn4)ccn3)n2)nc1", "note": "[Example 173, N-(4-(pyrazin-2-yl)pyridin-2-yl)-4-(pyridin-2-yl)thiazol-2-amine]", "IC50": "200 to 500"}, {"smiles": "c1ccc(-c2csc(Nc3cc(-c4ncccn4)ccn3)n2)nc1", "note": "[Example 174, 4-(pyridin-2-yl)-N-(4-(pyrimidin-2-yl)pyridin-2-yl)thiazol-2-amine]", "IC50": "200 to 500"}, {"smiles": "c1ccc(-c2csc(Nc3cc(-c4cccc5ccccc45)ccn3)n2)nc1", "note": "[Example 175, N-(4-(naphthalen-1-yl)pyridin-2-yl)-4-(pyridin-2-yl)thiazol-2-amine]", "IC50": "< 200"}, {"smiles": "c1ccc(-c2csc(Nc3cc(C4CC4)ccn3)n2)nc1", "note": "[Example 176, N-(4-cyclopropyl-pyridin-2-yl)-4-(pyridin-2-yl)thiazol-2-amine]", "IC50": "< 200"}, {"smiles": "Cc1ccnc(Nc2nc(-c3ccccn3)c(CCOC3CCC3)s2)c1", "note": "[Example 180, 5-(2-cyclobutoxy-ethyl)-N-(4-methylpyridin-2-yl)-4-(pyridin-2-yl)thiazol-2-amine]", "IC50": "< 200"}, {"smiles": "Cc1ccnc(Nc2nc(-c3ccccn3)c(C(C)(C)C)s2)c1", "note": "[Example 181, 5-tert-butyl-N-(4-methylpyridin-2-yl)-4-(pyridin-2-yl)thiazol-2-amine]", "IC50": "500 to 5000"}, {"smiles": "Cc1ccnc(Nc2nc(-c3ccccn3)c(COCC3CCC3)s2)c1", "note": "[Example 182, 5-((cyclobutyl-methoxy)methyl)-N-(4-methylpyridin-2-yl)-4-(pyridin-2-yl)thiazol-2-amine]", "IC50": "< 200"}, {"smiles": "Cc1ccnc(Nc2nc(-c3ccccn3)c(CN3CCC3)s2)c1", "note": "[Example 183, 5-(azetidin-1-ylmethyl)-N-(4-methylpyridin-2-yl)-4-(pyridin-2-yl)thiazol-2-amine]", "IC50": "500 to 5000"}, {"smiles": "CCc1sc(Nc2cc(C)ccn2)nc1-c1ccccn1", "note": "[Example 184, 5-ethyl-N-(4-methylpyridin-2-yl)-4-(pyridin-2-yl)thiazol-2-amine]", "IC50": "200 to 500"}, {"smiles": "CC(=O)N(C)c1cc(C(F)(F)F)cnc1Nc1nc(-c2ccccn2)cs1", "note": "[Example 212, N-methyl-N-(2-(4-(pyridin-2-yl)thiazol-2-ylamino)-5-(trifluoro-methyl)pyridin-3-yl) acetamide]", "IC50": "500 to 5000"}, {"smiles": "FC(F)(F)c1ccc(Nc2nc(-c3ccccn3)cs2)nc1", "note": "[Example 217, 4-(pyridin-2-yl)-N-(5-(trifluoromethyl)pyridin-2-yl)thiazol-2-amine]", "IC50": "< 200"}, {"smiles": "COc1ccc(Nc2nc(-c3ccccn3)cs2)nc1", "note": "[Example 218, N-(5-methoxypyridin-2-yl)-4-(pyridin-2-yl)thiazol-2-amine]", "IC50": "500 to 5000"}, {"smiles": "CC(C)c1ccc(Nc2nc(-c3ccccn3)cs2)nc1", "note": "[Example 219, N-(5-isopropylpyridin-2-yl)-4-(pyridin-2-yl)thiazol-2-amine]", "IC50": "< 200"}, {"smiles": "Cc1ccnc(Nc2nc(-c3cc(C)ccn3)cs2)c1", "note": "[Example 220, N,4-bis(4-methylpyridin-2-yl)thiazol-2-amine]", "IC50": "< 200"}, {"smiles": "c1ccc(-c2ccc(Nc3nc(-c4ccccn4)cs3)nc2)cc1", "note": "[Example 221, N-(5-phenylpyridin-2-yl)-4-(pyridin-2-yl)thiazol-2-amine]", "IC50": "< 200"}, {"smiles": "Cc1ccnc(-c2csc(Nc3ncccc3C)n2)c1", "note": "[Example 222, N-(3-methylpyridin-2-yl)-4-(4-methylpyridin-2-yl)thiazol-2-amine]", "IC50": "< 200"}, {"smiles": "Cc1ccnc(Nc2nc(-c3cc(Cl)ccn3)cs2)c1", "note": "[Example 223, 4-(4-chloropyridin-2-yl)-N-(4-methylpyridin-2-yl)thiazol-2-amine]", "IC50": "< 200"}, {"smiles": "CCOc1ccnc(-c2csc(Nc3cc(C)ccn3)n2)c1", "note": "[Example 224, 4-(4-ethoxypyridin-2-yl)-N-(4-methylpyridin-2-yl)thiazol-2-amine]", "IC50": "200 to 500"}, {"smiles": "COc1ccc(-c2csc(Nc3cc(C)ccn3)n2)nc1", "note": "[Example 225, 4-(5-methoxypyridin-2-yl)-N-(4-methylpyridin-2-yl)thiazol-2-amine]", "IC50": "200 to 500"}, {"smiles": "Cc1ccnc(Nc2nc(-c3cccnc3)cs2)c1", "note": "[Example 226, N-(4-methylpyridin-2-yl)-4-(pyridin-3-yl)thiazol-2-amine]", "IC50": "200 to 500"}, {"smiles": "Cc1sc(Nc2ccccn2)nc1-c1ccccn1", "note": "[Example 227, 5-methyl-N,4-di(pyridin-2-yl)thiazol-2-amine]", "IC50": "< 200"}]}]}
